Results as given in ChEMBL document CHEMBL1201862, “PubChem BioAssay data set” (2004).
Active and inactive are the calls of the source.

Key:
Protein RecA = molecular target: T1, Protein RecA (Mycobacterium tuberculosis, UniProt P9WHJ3); assay: Fluorescence Cell-Free Homogeneous Dose Retest to Identify Inhibitors of RecA-Intein Splicing Activity. [Related pubchem assays (depositor defined):AID2097, AID2223, AID489010, AID492950]; assay type: functional
T1 sequence (P9WHJ3 whole entry): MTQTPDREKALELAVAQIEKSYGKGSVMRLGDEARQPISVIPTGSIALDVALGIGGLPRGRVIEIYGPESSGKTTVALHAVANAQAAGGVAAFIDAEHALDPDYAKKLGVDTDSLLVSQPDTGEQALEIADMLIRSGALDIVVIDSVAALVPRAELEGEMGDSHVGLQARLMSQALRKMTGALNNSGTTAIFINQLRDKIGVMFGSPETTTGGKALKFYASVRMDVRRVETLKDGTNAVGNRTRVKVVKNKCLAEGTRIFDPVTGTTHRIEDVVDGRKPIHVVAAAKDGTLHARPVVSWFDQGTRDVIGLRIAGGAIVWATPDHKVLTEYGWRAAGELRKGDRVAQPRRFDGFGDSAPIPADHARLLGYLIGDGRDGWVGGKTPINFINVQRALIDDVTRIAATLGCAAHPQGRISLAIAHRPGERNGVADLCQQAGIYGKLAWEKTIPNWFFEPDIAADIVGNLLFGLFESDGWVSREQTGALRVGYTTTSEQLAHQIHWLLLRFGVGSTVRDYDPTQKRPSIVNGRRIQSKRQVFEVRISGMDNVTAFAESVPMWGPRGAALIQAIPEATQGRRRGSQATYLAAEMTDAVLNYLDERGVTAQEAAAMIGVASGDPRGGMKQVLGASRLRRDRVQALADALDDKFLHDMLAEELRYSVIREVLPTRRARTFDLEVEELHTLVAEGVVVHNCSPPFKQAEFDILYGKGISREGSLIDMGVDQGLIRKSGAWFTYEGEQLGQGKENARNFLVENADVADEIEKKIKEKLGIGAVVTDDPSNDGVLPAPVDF

[1] = tested on: Streptococcus sp. 'group A'; assay: Streptococcus pyogenes SK(-)GAS viability under kanamycin – luminescence, BacTiterGlo, confirmation, counter-screen for streptokinase expression inhibitor project, dose response (AID 1900); assay type: functional, organism-based
Streptococcus = assay: GAS UMAA2166 growth inhibition – luminescence, BacTiterGlo, counter-screen for streptokinase expression inhibitor project, dose response (AID 1915); assay type: functional, organism-based;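 note: potency for reduction of bacterial viability or growth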
[2] = molecular target: Photoreceptor-specific nuclear receptor (Homo sapiens, UniProt Q9Y5X4); assay type: functional, cell-based;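 note: CHO-S cells with Gal4-NCOR and VP16-NR2E3 two-hybrid luciferase reporter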
[3] = molecular target: T2, Mitochondrial peptide methionine sulfoxide reductase (Bos taurus, UniProt P54149); assay: Absorbance-based biochemical high throughput dose response assay for activators of Methionine sulfoxide reductase A (MsrA).; assay type: functional
T2 sequence (P54149 whole entry): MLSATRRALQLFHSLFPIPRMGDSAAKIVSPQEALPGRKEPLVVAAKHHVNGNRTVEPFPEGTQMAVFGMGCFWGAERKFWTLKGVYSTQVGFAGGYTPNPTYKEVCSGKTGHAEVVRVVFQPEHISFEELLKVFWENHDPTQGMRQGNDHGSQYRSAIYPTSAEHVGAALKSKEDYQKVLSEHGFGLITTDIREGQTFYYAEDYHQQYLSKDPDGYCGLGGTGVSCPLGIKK

[4] = Counterscreen for AddAB inhibitors: absorbance-based bacterial cell-based high throughput dose response assay for inhibitors of bacterial viability. [Related pubchem assays (depositor defined):AID435030, AID449728, AID449731, AID488942, AID488955, AID488956]; assay type: functional
[5] = Trypanosoma cruzi growth suppression in host cells – NIH3T3 host cells, beta-gal luminescence, confirmation (AID 2044); assay type: functional, cell-based;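 note: intracellular parasites grown in NIH/3T3 mouse fibroblasts as host cells; luminescent beta-galactosidase reporter signal from transgenic T. cruzi replicating inside host cells; inhibitors lower the luminescence signal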
[6] = molecular target: T3, Microphthalmia-associated transcription factor (Homo sapiens, UniProt O75030); assay: reducers of TRPM1 reporter luminescence, concentration series – cell-based, SK-MEL-5, cherry-picked, set 3, MITF inhibitor project, dose response (AID 493073); assay type: functional;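 note: SK-MEL-5 melanoma cells with luciferase driven by the MITF target TRPM1 promoter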
T3 sequence (O75030 whole entry): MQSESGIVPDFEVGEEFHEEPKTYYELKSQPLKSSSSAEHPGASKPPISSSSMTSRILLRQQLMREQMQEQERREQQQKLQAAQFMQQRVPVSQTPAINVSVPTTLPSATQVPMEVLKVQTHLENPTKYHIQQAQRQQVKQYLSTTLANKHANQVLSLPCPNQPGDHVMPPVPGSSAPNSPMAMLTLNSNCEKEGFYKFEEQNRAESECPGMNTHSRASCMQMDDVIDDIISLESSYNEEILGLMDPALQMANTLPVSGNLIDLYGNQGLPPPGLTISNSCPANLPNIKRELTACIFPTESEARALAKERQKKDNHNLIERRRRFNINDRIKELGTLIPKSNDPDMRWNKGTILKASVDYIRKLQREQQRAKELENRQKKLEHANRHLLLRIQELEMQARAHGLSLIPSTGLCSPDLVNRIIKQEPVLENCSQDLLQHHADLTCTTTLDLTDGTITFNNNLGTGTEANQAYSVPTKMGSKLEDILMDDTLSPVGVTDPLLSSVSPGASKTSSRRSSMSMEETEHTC

[7] = NIH3T3 cell viability loss – ATP luminescence, mouse fibroblasts, counter-screen, dose response (AID 2010); assay type: functional, cell-based;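 note: cells exposed to compound for about 90 hours before reading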
[8] = Luminescence Cell-Based Dose Retest to Confirm Inhibitors of Cancer Stem Cells. [Related pubchem assays (depositor defined):AID2717, AID2721]; assay type: functional; details: Homo sapiens
Genome polyprotein = Genome polyprotein (dengue virus type 2, UniProt P29990); assay: flavivirus cap methylation enzyme inhibition – biochemical, confirmation dose response, primary screen (AID 588689); assay type: functional
Sequence of Genome polyprotein (P29990 2492-3391 limits assumed): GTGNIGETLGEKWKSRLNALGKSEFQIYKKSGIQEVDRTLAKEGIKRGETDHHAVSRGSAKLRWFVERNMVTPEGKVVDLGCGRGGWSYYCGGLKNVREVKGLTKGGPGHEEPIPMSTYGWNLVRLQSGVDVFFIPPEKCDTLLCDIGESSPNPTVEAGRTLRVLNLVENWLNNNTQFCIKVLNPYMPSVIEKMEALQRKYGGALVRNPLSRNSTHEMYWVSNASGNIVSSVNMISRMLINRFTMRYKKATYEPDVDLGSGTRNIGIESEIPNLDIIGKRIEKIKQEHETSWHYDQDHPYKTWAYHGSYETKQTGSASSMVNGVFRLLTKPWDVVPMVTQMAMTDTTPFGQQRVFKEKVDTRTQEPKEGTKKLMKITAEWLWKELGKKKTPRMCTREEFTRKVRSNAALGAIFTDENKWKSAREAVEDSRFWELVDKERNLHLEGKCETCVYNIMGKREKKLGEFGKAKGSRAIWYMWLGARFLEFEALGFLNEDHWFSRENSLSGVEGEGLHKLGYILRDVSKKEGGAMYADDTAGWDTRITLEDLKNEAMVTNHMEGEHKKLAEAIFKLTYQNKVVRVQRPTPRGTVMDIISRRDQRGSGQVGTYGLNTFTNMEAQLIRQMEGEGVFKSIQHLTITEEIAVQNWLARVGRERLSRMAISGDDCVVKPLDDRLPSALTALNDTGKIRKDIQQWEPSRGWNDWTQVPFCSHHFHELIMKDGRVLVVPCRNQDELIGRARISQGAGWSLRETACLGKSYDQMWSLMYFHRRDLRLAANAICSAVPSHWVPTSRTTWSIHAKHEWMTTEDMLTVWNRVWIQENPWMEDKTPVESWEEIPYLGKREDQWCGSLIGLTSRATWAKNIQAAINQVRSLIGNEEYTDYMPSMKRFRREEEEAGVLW

Sequence of Photoreceptor-specific nuclear receptor (Q9Y5X4 whole entry, the tested form may be a part): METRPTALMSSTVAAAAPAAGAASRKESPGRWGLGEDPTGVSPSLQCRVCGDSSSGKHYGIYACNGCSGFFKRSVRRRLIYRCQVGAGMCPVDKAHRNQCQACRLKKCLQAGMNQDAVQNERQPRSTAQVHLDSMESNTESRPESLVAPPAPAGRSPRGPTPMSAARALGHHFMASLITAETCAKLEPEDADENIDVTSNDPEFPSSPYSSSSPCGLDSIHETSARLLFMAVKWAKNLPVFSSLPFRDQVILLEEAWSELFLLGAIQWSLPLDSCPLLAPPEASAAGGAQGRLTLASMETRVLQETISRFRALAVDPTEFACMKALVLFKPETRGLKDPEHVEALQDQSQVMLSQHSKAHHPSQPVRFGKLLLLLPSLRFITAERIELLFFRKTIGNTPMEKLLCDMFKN

| SMILES | EC50 (Protein RecA) | EC50 [1] | EC50 (Streptococcus) | IC50 [4] | other results |
| --- | --- | --- | --- | --- | --- |
| COc1ccc(CNC(=O)c2c(C)oc3c2C(=O)c2ccccc2C3=O)cc1 | 5.29 µM (active) | 0.737 µM (active) | 6.35 µM (active) |  | IC50 [2]: 1.21 µM (active); EC50 [3]: > 104 µM (inactive) |
| CCSc1nsc(NC(=O)Nc2cccc(F)c2)n1 |  | 9.91 µM (active) | 20.7 µM (active) | > 119 µM (inactive) |  |
| O=[N+]([O-])c1ccc(/C=N/n2cnc3ccccc32)s1 |  |  |  | 91.4 µM (inactive) | EC50 [5]: 0.257 µM (active); AC50 [6]: 6.25 µM (active); EC50 [7]: 5.46 µM (active); AC50 [8]: 3.84 µM (active) |
| CC(C)c1ccc(S(=O)(=O)/N=C2\C=C(NS(=O)(=O)c3ccccc3)C(=O)c3ccccc32)cc1 | 3.69 µM (active) |  |  |  | IC50 (Genome polyprotein): 25.7 µM (active) |
